Laboratory results published in ChEMBL document CHEMBL5518248, “Design, Synthesis, and Biological Evaluation of Novel Arylomycins against Multidrug-Resistant Gram-Negative Bacteria” (J Med Chem, 2024).

Assays:
Assay type in all cases: functional
Details in all cases: time 18-20 hrs
[1] = system: Pseudomonas aeruginosa; assay: Antibacterial activity against Pseudomonas aeruginosa 19-5 assessed as inhibition of bacterial growth measured after 18 to 20 hrs by broth microdilution method
[2] = system: Escherichia coli; assay: Antibacterial activity against Escherichia coli 14-4 assessed as inhibition of bacterial growth measured after 18 to 20 hrs by broth microdilution method
[3] = system: Acinetobacter baumannii; assay: Antibacterial activity against Acinetobacter baumannii 17-8 assessed as inhibition of bacterial growth measured after 18 to 20 hrs by broth microdilution method
[4] = system: Klebsiella pneumoniae; assay: Antibacterial activity against Klebsiella pneumoniae 15-4 assessed as inhibition of bacterial growth measured after 18 to 20 hrs by broth microdilution method
[5] = system: Escherichia coli; assay: Antibacterial activity against Escherichia coli ATCC 35218 assessed as inhibition of bacterial growth measured after 18 to 20 hrs by broth microdilution method
[6] = system: Escherichia coli; assay: Antibacterial activity against Escherichia coli 14-2 assessed as inhibition of bacterial growth measured after 18 to 20 hrs by broth microdilution method
[7] = system: Klebsiella pneumoniae; assay: Antibacterial activity against Klebsiella pneumoniae 15-1 assessed as inhibition of bacterial growth measured after 18 to 20 hrs by broth microdilution method
[8] = system: Acinetobacter baumannii; assay: Antibacterial activity against Acinetobacter baumannii 17-2 assessed as inhibition of bacterial growth measured after 18 to 20 hrs by broth microdilution method
[9] = system: Pseudomonas aeruginosa; assay: Antibacterial activity against Pseudomonas aeruginosa 17-1 assessed as inhibition of bacterial growth measured after 18 to 20 hrs by broth microdilution method
[10] = system: Klebsiella pneumoniae; assay: Antibacterial activity against Klebsiella pneumoniae 15-5 assessed as inhibition of bacterial growth measured after 18 to 20 hrs by broth microdilution method

Structure (SMILES) | MIC [1] | MIC [2] | MIC [3] | MIC [4] | MIC [5] | MIC [6] | MIC [7] | MIC [8] | MIC [9] | MIC [10]
Cc1nc(-c2ccc(CSSCCC(F)(F)F)cc2)ncc1C(=O)N[C@@H](CCN)C(=O)N(C)[C@@H]1C(=O)N[C@@H](C)C(=O)N[C@H](C(=O)NCC#N)Cc2ccc(OCCN)c(c2)-c2cc1ccc2OCCN.O=C(O)C(F)(F)F.O=C(O)C(F)(F)F.O=C(O)C(F)(F)F.O=C(O)C(F)(F)F | 8 µg/mL | 0.125 µg/mL | 1 µg/mL | 0.25 µg/mL | 0.06 µg/mL | 0.125 µg/mL | 0.25 µg/mL | 2 µg/mL | 8 µg/mL | 0.25 µg/mL
CCSSc1ccc(-c2ncc(C(=O)N[C@@H](CCN)C(=O)N(C)[C@@H]3C(=O)N[C@@H](C)C(=O)N[C@H](C(=O)NCC#N)Cc4ccc(OCCN)c(c4)-c4cc3ccc4OCCN)c(C)n2)cc1.O=C(O)C(F)(F)F.O=C(O)C(F)(F)F.O=C(O)C(F)(F)F.O=C(O)C(F)(F)F | 8 µg/mL | 0.06 µg/mL | 1 µg/mL | 0.125 µg/mL | ≤ 0.03 µg/mL | 0.125 µg/mL | 0.06 µg/mL | 2 µg/mL | 8 µg/mL | 0.125 µg/mL
CSSC(C)(C)c1ccc(-c2ncc(C(=O)N[C@@H](CCN)C(=O)N(C)[C@@H]3C(=O)N[C@@H](C)C(=O)N[C@H](C(=O)O)Cc4ccc(OCCN)c(c4)-c4cc3ccc4OCCN)c(C)n2)cc1.O=C(O)C(F)(F)F.O=C(O)C(F)(F)F.O=C(O)C(F)(F)F.O=C(O)C(F)(F)F | > 64 µg/mL | 0.06 µg/mL | 2 µg/mL | 0.25 µg/mL | ≤ 0.03 µg/mL | ≤ 0.03 µg/mL | ≤ 0.03 µg/mL | 4 µg/mL | > 64 µg/mL | ≤ 0.03 µg/mL
Cc1nc(-c2ccc(SC(C)(C)C)cc2)ncc1C(=O)N[C@@H](CCN)C(=O)N(C)[C@@H]1C(=O)N[C@@H](C)C(=O)N[C@H](C(=O)NCC#N)Cc2ccc(OCCN)c(c2)-c2cc1ccc2OCCN.O=C(O)C(F)(F)F.O=C(O)C(F)(F)F.O=C(O)C(F)(F)F.O=C(O)C(F)(F)F | 16 µg/mL | 0.06 µg/mL | 1 µg/mL | 0.125 µg/mL | ≤ 0.03 µg/mL | 0.125 µg/mL | 0.06 µg/mL | 2 µg/mL | 16 µg/mL | 0.06 µg/mL
Cc1nc(-c2ccc(C(C)(C)C)cc2)ncc1C(=O)N[C@@H](CCN)C(=O)N(C)[C@@H]1C(=O)N[C@@H](C)C(=O)N[C@H](C(=O)O)Cc2ccc(OCCN)c(c2)-c2cc1ccc2OCCN.O=C(O)C(F)(F)F.O=C(O)C(F)(F)F.O=C(O)C(F)(F)F.O=C(O)C(F)(F)F | > 64 µg/mL | 0.5 µg/mL | 1 µg/mL | 0.25 µg/mL | 0.06 µg/mL | 0.125 µg/mL | 0.06 µg/mL | 8 µg/mL | > 64 µg/mL | 0.125 µg/mL
COCCSSCc1ccc(-c2ncc(C(=O)N[C@@H](CCN)C(=O)N(C)[C@@H]3C(=O)N[C@@H](C)C(=O)N[C@H](C(=O)NCC#N)Cc4ccc(OCCN)c(c4)-c4cc3ccc4OCCN)c(C)n2)cc1.O=C(O)C(F)(F)F.O=C(O)C(F)(F)F.O=C(O)C(F)(F)F.O=C(O)C(F)(F)F | > 64 µg/mL | 0.5 µg/mL | 2 µg/mL | 2 µg/mL | 0.25 µg/mL | 0.5 µg/mL | 1 µg/mL | 8 µg/mL | > 64 µg/mL | 1 µg/mL
Cc1nc(-c2ccc(CCSSC(C)(C)C)cc2)ncc1C(=O)N[C@@H](CCN)C(=O)N(C)[C@@H]1C(=O)N[C@@H](C)C(=O)N[C@H](C(=O)NCC#N)Cc2ccc(OCCN)c(c2)-c2cc1ccc2OCCN.O=C(O)C(F)(F)F.O=C(O)C(F)(F)F.O=C(O)C(F)(F)F.O=C(O)C(F)(F)F | 4 µg/mL | ≤ 0.03 µg/mL | 0.5 µg/mL | 0.125 µg/mL | ≤ 0.03 µg/mL | ≤ 0.03 µg/mL | 0.06 µg/mL | 0.25 µg/mL | 4 µg/mL | ≤ 0.03 µg/mL
Cc1nc(-c2ccc(C(C)(C)C)cc2)ncc1C(=O)N[C@@H](CCN)C(=O)N(C)[C@@H]1C(=O)N[C@@H](C)C(=O)N[C@H](NC(=O)CC#N)Cc2ccc(OCCN)c(c2)-c2cc1ccc2OCCN.O=C(O)C(F)(F)F.O=C(O)C(F)(F)F.O=C(O)C(F)(F)F.O=C(O)C(F)(F)F | > 64 µg/mL | 64 µg/mL | > 64 µg/mL | 64 µg/mL | 64 µg/mL | 64 µg/mL | 32 µg/mL | > 64 µg/mL | > 64 µg/mL | 64 µg/mL
Cc1nc(-c2ccc(C(C)(C)C)cc2)ncc1C(=O)N[C@@H](CCN)C(=O)N(C)[C@H]1Cc2ccc(OCCN)c(c2)-c2cc(ccc2OCCN)C[C@@H](C(=O)NCC#N)NC(=O)[C@H](C)NC1=O.Cl.Cl.Cl.Cl | > 64 µg/mL | 64 µg/mL | > 64 µg/mL | > 64 µg/mL | 61 µg/mL | 64 µg/mL | > 64 µg/mL | > 64 µg/mL | > 64 µg/mL | > 64 µg/mL

Continued by falling MIC [1], values first:

MIC [1] | MIC [2] | MIC [3] | MIC [4] | MIC [5] | MIC [6] | MIC [7] | MIC [8] | MIC [9] | MIC [10] | Structure (SMILES)
4 µg/mL | 0.125 µg/mL | 0.5 µg/mL | 0.25 µg/mL | ≤ 0.03 µg/mL | ≤ 0.03 µg/mL | 0.5 µg/mL | 1 µg/mL | 4 µg/mL | 0.25 µg/mL | Cc1nc(-c2ccc(CSSC3CCCCC3)cc2)ncc1C(=O)N[C@@H](CCN)C(=O)N(C)[C@@H]1C(=O)N[C@@H](C)C(=O)N[C@H](C(=O)NCC#N)Cc2ccc(OCCN)c(c2)-c2cc1ccc2OCCN.O=C(O)C(F)(F)F.O=C(O)C(F)(F)F.O=C(O)C(F)(F)F.O=C(O)C(F)(F)F
4 µg/mL | 1 µg/mL | 2 µg/mL | 2 µg/mL | 2 µg/mL | 1 µg/mL | 2 µg/mL | 2 µg/mL | 4 µg/mL | 2 µg/mL | CCCCCCCSSCc1ccc(-c2ncc(C(=O)N[C@@H](CCN)C(=O)N(C)[C@@H]3C(=O)N[C@@H](C)C(=O)N[C@H](C(=O)NCC#N)Cc4ccc(OCCN)c(c4)-c4cc3ccc4OCCN)c(C)n2)cc1.O=C(O)C(F)(F)F.O=C(O)C(F)(F)F.O=C(O)C(F)(F)F.O=C(O)C(F)(F)F
4 µg/mL | 1 µg/mL | 1 µg/mL | 1 µg/mL | 0.25 µg/mL | 0.5 µg/mL | 1 µg/mL | 1 µg/mL | 4 µg/mL | 1 µg/mL | Cc1nc(-c2ccc(CSSCC[Si](C)(C)C)cc2)ncc1C(=O)N[C@@H](CCN)C(=O)N(C)[C@@H]1C(=O)N[C@@H](C)C(=O)N[C@H](C(=O)NCC#N)Cc2ccc(OCCN)c(c2)-c2cc1ccc2OCCN.O=C(O)C(F)(F)F.O=C(O)C(F)(F)F.O=C(O)C(F)(F)F.O=C(O)C(F)(F)F
2 µg/mL | ≤ 0.03 µg/mL | 0.5 µg/mL | 0.25 µg/mL | ≤ 0.03 µg/mL | 0.06 µg/mL | 0.25 µg/mL | 0.5 µg/mL | 4 µg/mL | 0.25 µg/mL | CCCCCSSCc1ccc(-c2ncc(C(=O)N[C@@H](CCN)C(=O)N(C)[C@@H]3C(=O)N[C@@H](C)C(=O)N[C@H](C(=O)NCC#N)Cc4ccc(OCCN)c(c4)-c4cc3ccc4OCCN)c(C)n2)cc1.O=C(O)C(F)(F)F.O=C(O)C(F)(F)F.O=C(O)C(F)(F)F.O=C(O)C(F)(F)F
2 µg/mL | 0.25 µg/mL | 1 µg/mL | 0.5 µg/mL | 0.5 µg/mL | 0.5 µg/mL | 0.5 µg/mL | 1 µg/mL | 4 µg/mL | 0.5 µg/mL | Cc1nc(-c2ccc(CCCSSC(C)(C)C)cc2)ncc1C(=O)N[C@@H](CCN)C(=O)N(C)[C@@H]1C(=O)N[C@@H](C)C(=O)N[C@H](C(=O)NCC#N)Cc2ccc(OCCN)c(c2)-c2cc1ccc2OCCN.O=C(O)C(F)(F)F.O=C(O)C(F)(F)F.O=C(O)C(F)(F)F.O=C(O)C(F)(F)F
